According to ChEMBL document CHEMBL1130796, “7,8-Methylenedioxy-4H-2,3-benzodiazepin-4-ones as novel AMPA receptor antagonists” (Bioorg Med Chem Lett, 1998):
Activity calls are given as the source filed them. The calls are words filed in the database; no cut-off is given here.

What was measured:
[1] = Compound was evaluated for toxic dose on locomotor assessed by rotarod test in mice; type: ADME; settings: mouse, in vivo
Mus musculus [2] = organism: Mus musculus; assay: Compound was evaluated for anticonvulsant activity against audiogenic seizures in DBA/2 mice( clonic phase); type: functional
Mus musculus [3] = organism: Mus musculus; assay: Compound was evaluated for anticonvulsant activity against audiogenic seizures in DBA/2 mice( tonic phase); type: functional
Mus musculus [4] = organism: Mus musculus; assay: Compound was evaluated for anticonvulsant activity against AMPA induced seizures in DBA/2 mice( clonic phase); type: functional
Mus musculus [5] = organism: Mus musculus; assay: Compound was evaluated for anticonvulsant activity against AMPA induced seizures in DBA/2 mice( tonic phase); type: functional
Mus musculus [6] = organism: Mus musculus; assay: Compound was evaluated for anticonvulsant activity against MES induced seizures(tonic phase) in swiss mice; type: functional
Mus musculus [7] = organism: Mus musculus; assay: Compound was evaluated for anticonvulsant activity against PTZ induced seizures (clonic phase) in swiss mice; type: functional
Mus musculus [8] = organism: Mus musculus; assay: Compound was evaluated for anticonvulsant activity against audiogenic induced seizures after pretreatment with aniracetam (clonic phase); ND means not detected; type: functional, organism-based
Mus musculus [9] = organism: Mus musculus; assay: Compound was evaluated for anticonvulsant activity against audiogenic induced seizures after pretreatment with aniracetam (tonic phase); ND means not detected; type: functional, organism-based
Mus musculus [10] = organism: Mus musculus; assay: Compound was evaluated for anticonvulsant activity against audiogenic induced seizures after pretreatment with aniracetam (clonic phase); type: functional
Mus musculus [11] = organism: Mus musculus; assay: Compound was evaluated for anticonvulsant activity against audiogenic induced seizures after pretreatment with aniracetam (tonic phase); type: functional
Mus musculus [12] = organism: Mus musculus; assay: Compound was evaluated for anticonvulsant activity against audiogenic induced seizures after pretreatment with aniracetam (tonic phase); p< 0.01; type: functional
Mus musculus [13] = organism: Mus musculus; assay: Compound was evaluated for anticonvulsant activity against audiogenic induced seizures after pretreatment with aniracetam (clonic phase); p< 0.01; type: functional
Mus musculus [14] = organism: Mus musculus; assay: Compound was evaluated for anticonvulsant activity against audiogenic induced seizures after pretreatment with aniracetam (tonic phase); p <0.01; type: functional
Mus musculus [15] = organism: Mus musculus; assay: Compound was evaluated for anticonvulsant activity against audiogenic induced seizures after pretreatment with aniracetam (clonic phase); p <0.01; type: functional
[16] = Ratio between TD50 and ED50 from the clonic phase of the audiogenic seizures was determined; type: ADME
Mus musculus [17] = organism: Mus musculus; assay: Compound was evaluated for anticonvulsant activity against audiogenic induced seizures after pretreatment with aniracetam (tonic phase); p<0.01; type: functional
Mus musculus [18] = organism: Mus musculus; assay: Compound was evaluated for anticonvulsant activity against audiogenic induced seizures after pretreatment with aniracetam (clonic phase); p<0.01; type: functional

SMILES: COc1cc2c(cc1OC)C(c1cccc(N)c1)=NNC(=O)C2
- TD50 [1]: 15.9 mg/kg

SMILES: Nc1cccc(C2=NNC(=O)Cc3cc4c(cc32)OCO4)c1
- ED50 (Mus musculus [2]): 5.32 mg/kg
- ED50 (Mus musculus [3]): 3.74 mg/kg
- ED50 (Mus musculus [4]): 8.62 mg/kg
- ED50 (Mus musculus [5]): 7.03 mg/kg
- ED50 (Mus musculus [6]): 5.7 mg/kg
- ED50 (Mus musculus [7]): 11.9 mg/kg
- ED50 (Mus musculus [8]): inactive
- ED50 (Mus musculus [9]): inactive
- TD50 [1]: 29.8 mg/kg

SMILES: COc1cc2c(cc1OC)C(c1ccccc1)=NNC(=O)C2
- ED50 (Mus musculus [2]): 10 mg/kg
- ED50 (Mus musculus [4]): 18.5 mg/kg
- ED50 (Mus musculus [5]): 11.9 mg/kg
- ED50 (Mus musculus [6]): 10.6 mg/kg
- ED50 (Mus musculus [7]): 19.1 mg/kg
- ED50 (Mus musculus [10]): 60.2 mg/kg
- ED50 (Mus musculus [11]): 44 mg/kg
- TD50 [1]: 42.1 mg/kg

SMILES: Nc1ccc(C2=NNC(=O)Cc3cc4c(cc32)OCO4)cc1
- ED50 (Mus musculus [2]): 6.44 mg/kg
- ED50 (Mus musculus [3]): 3.22 mg/kg
- ED50 (Mus musculus [12]): 11.7 mg/kg
- ED50 (Mus musculus [4]): 11.2 mg/kg
- ED50 (Mus musculus [5]): 8.41 mg/kg
- ED50 (Mus musculus [6]): 9.48 mg/kg
- ED50 (Mus musculus [7]): 21.2 mg/kg
- ED50 (Mus musculus [13]): 18.5 mg/kg
- TD50 [1]: 29.3 mg/kg

SMILES: COc1ccc(C2=NNC(=O)Cc3cc4c(cc32)OCO4)cc1
- ED50 (Mus musculus [2]): > 37.2 mg/kg
- ED50 (Mus musculus [3]): > 37.2 mg/kg
- TD50 [1]: > 62.1 mg/kg

SMILES: O=C1Cc2cc3c(cc2C(c2ccccc2)=NN1)OCO3
- ED50 (Mus musculus [2]): 12.1 mg/kg
- ED50 (Mus musculus [3]): 11.4 mg/kg
- ED50 (Mus musculus [4]): 20.8 mg/kg
- ED50 (Mus musculus [5]): 16.8 mg/kg
- ED50 (Mus musculus [6]): 12.6 mg/kg
- ED50 (Mus musculus [7]): 23.1 mg/kg
- ED50 (Mus musculus [8]): inactive
- ED50 (Mus musculus [9]): inactive
- TD50 [1]: 44.6 mg/kg

SMILES: COc1cc2c(cc1OC)C(c1ccc(N)cc1)=NNC(=O)C2
- ED50 (Mus musculus [14]): 18 mg/kg
- ED50 (Mus musculus [4]): 9.93 mg/kg
- ED50 (Mus musculus [5]): 7.73 mg/kg
- ED50 (Mus musculus [6]): 4.92 mg/kg
- ED50 (Mus musculus [7]): 6.99 mg/kg
- ED50 (Mus musculus [15]): 20.2 mg/kg
- TD50 [1]: 17.4 mg/kg

SMILES: O=C1Cc2cc3c(cc2C(c2ccc(O)cc2)=NN1)OCO3
- ED50 (Mus musculus [2]): 15.5 mg/kg
- ED50 (Mus musculus [3]): 14.7 mg/kg
- TD50 [1]: 44.7 mg/kg
- selectivity ratio [16]: 2.9

SMILES: CC1=NN=C(c2ccc(N)cc2)c2cc3c(cc2C1)OCO3 [GYKI-52466]
- ED50 (Mus musculus [17]): 29.3 mg/kg
- ED50 (Mus musculus [4]): 16.8 mg/kg
- ED50 (Mus musculus [5]): 11.9 mg/kg
- ED50 (Mus musculus [7]): 20 mg/kg
- ED50 (Mus musculus [18]): 39.3 mg/kg
- TD50 [1]: 22.3 mg/kg
